Source: the supplement of paper PMC13380429

What was measured:
Caco-2 [1] = assay: cell viability relative to DMSO; higher = less toxic; conditions: 72 h
Calu-3 [2] = assay: as above; conditions: 72 h
HepG2 [3] = assay: as above; conditions: 72 h
U2OS [4] = assay: as above; conditions: 72 h
Vero E6 [5] = assay: as above; conditions: 72 h
Caco-2 [6] = assay: relative viability EC50 (midpoint between 100% and the lowest measured viability); higher = less toxic; conditions: 72 h
Calu-3 [7] = assay: as above; conditions: 72 h
HepG2 [8] = assay: as above; conditions: 72 h
U2OS [9] = assay: as above; conditions: 72 h
Vero E6 [10] = assay: as above; conditions: 72 h
Caco-2 [11] = assay: drug sensitivity score (DSS) for viability; higher = more toxic; extreme values may be limits of the assay; conditions: 72 h
Calu-3 [12] = assay: as above; conditions: 72 h
HepG2 [13] = assay: as above; conditions: 72 h
U2OS [14] = assay: as above; conditions: 72 h
Vero E6 [15] = assay: as above; conditions: 72 h
[16] = tested on: A549-ACE2 infected with SARS-CoV-2; assay: cell count relative to DMSO; higher = less toxic; conditions: 24 h
[17] = tested on: A549-ACE2 infected with SARS-CoV-2; assay: SARS-CoV-2 infection rate relative to DMSO; higher = more infection; conditions: 24 h
A549-ACE2 [18] = assay: phospholipidosis EC50; higher = less potent phospholipidosis inducer
A549-ACE2 [19] = assay: drug-induced phospholipidosis relative to tamoxifen; higher = more phospholipidosis
[20] = tested on: A549-ACE2 infected with SARS-CoV-2; assay: morphology score (similarity to uninfected cells); higher = more like uninfected cells; conditions: 24 h

N#Cc1c[nH]c2c(C(=O)N3CCN(CCc4ccc(F)cc4)CC3)cccc12 [pruvanserin]
cell viability [%]
Conditions	Caco-2 [1]	Calu-3 [2]	HepG2 [3]	U2OS [4]	Vero E6 [5]
1 nM	94.9	91.8	103	94	105
10 nM	95.3	112	110	98.4	86.8
100 nM	96.9	91.4	117	92.5	102
1000 nM	98.1	112	98.1	104	95.2
10000 nM	95.7	101	99.3	100	98.4

Conditions	drug sensitivity score	relative viability EC50 [µM]
Caco-2 [6]	–	> 10
Caco-2 [11]	0	–
Calu-3 [7]	–	> 10
Calu-3 [12]	0	–
HepG2 [8]	–	> 10
HepG2 [13]	0	–
U2OS [9]	–	> 10
U2OS [14]	0	–
Vero E6 [10]	–	> 10
Vero E6 [15]	0	–

FC(F)(F)C(F)(F)C(F)(F)C(F)(F)C(F)(F)C(F)(F)C(F)(F)C(F)(F)Br [perflubron]
cell viability [%]
Conditions	Caco-2 [1]	Calu-3 [2]	HepG2 [3]	U2OS [4]	Vero E6 [5]
1 nM	97	87.9	104	98.1	109
10 nM	98.9	108	102	100	101
100 nM	91.8	98.1	99.9	94.1	102
1000 nM	103	102	96.4	104	92.4
10000 nM	91.2	93.4	105	97.1	96.7

Conditions	drug sensitivity score	relative viability EC50 [µM]
Caco-2 [6]	–	> 10
Caco-2 [11]	0	–
Calu-3 [7]	–	> 10
Calu-3 [12]	0	–
HepG2 [8]	–	> 10
HepG2 [13]	0	–
U2OS [9]	–	> 10
U2OS [14]	0	–
Vero E6 [10]	–	> 10
Vero E6 [15]	0	–

N[C@@H](Cn1oc(=O)[nH]c1=O)C(=O)O [L-quisqualic-acid]
cell viability [%]
Conditions	Caco-2 [1]	Calu-3 [2]	HepG2 [3]	U2OS [4]	Vero E6 [5]
1 nM	99.1	87.9	89.7	99.2	101
10 nM	94	96.2	99.1	104	100
100 nM	91.9	100	91	101	98.7
1000 nM	97	93.1	89.8	101	96.8
10000 nM	97.5	94.9	107	95.7	102

Conditions	drug sensitivity score	relative viability EC50 [µM]
Caco-2 [6]	–	> 10
Caco-2 [11]	0	–
Calu-3 [7]	–	> 10
Calu-3 [12]	0	–
HepG2 [8]	–	> 10
HepG2 [13]	0	–
U2OS [9]	–	> 10
U2OS [14]	0	–
Vero E6 [10]	–	> 10
Vero E6 [15]	0	–

CCN(CC)CCN(Cc1ccc(-c2ccc(C(F)(F)F)cc2)cc1)C(=O)Cn1c(SCc2ccc(F)cc2)nc(=O)c2c1CCC2 [darapladib]
cell viability [%]
Conditions	Caco-2 [1]	Calu-3 [2]	HepG2 [3]	U2OS [4]	Vero E6 [5]
1 nM	93.5	102	91.8	102	91.9
10 nM	93.6	95.7	97.1	98.3	100
100 nM	98.9	106	85.3	103	90.1
1000 nM	93.8	90.2	101	98.4	92.4
10000 nM	13	0.4	0.3	1.6	45.1

Conditions	drug sensitivity score	relative viability EC50 [µM]
Caco-2 [6]	–	2.59
Caco-2 [11]	5.8	–
Calu-3 [7]	–	2.35
Calu-3 [12]	7.1	–
HepG2 [8]	–	3.21
HepG2 [13]	5.5	–
U2OS [9]	–	3.05
U2OS [14]	5.7	–
Vero E6 [10]	–	2.05
Vero E6 [15]	4.2	–

CC1(C)S[C@@H]2[C@H](NC(=O)C(C(=O)O)c3ccccc3)C(=O)N2[C@H]1C(=O)O (stereo partly specified) [carbenicillin]
cell viability [%]
Conditions	Caco-2 [1]	Calu-3 [2]	HepG2 [3]	U2OS [4]	Vero E6 [5]
1 nM	104	105	97.2	103	102
10 nM	106	98.3	100	102	100
100 nM	92.5	103	103	98.8	102
1000 nM	93.9	105	103	102	95.7
10000 nM	94.9	99.9	98	96	95.7

Conditions	drug sensitivity score	relative viability EC50 [µM]
Caco-2 [6]	–	> 10
Caco-2 [11]	0	–
Calu-3 [7]	–	> 10
Calu-3 [12]	0	–
HepG2 [8]	–	> 10
HepG2 [13]	0	–
U2OS [9]	–	> 10
U2OS [14]	0	–
Vero E6 [10]	–	> 10
Vero E6 [15]	0	–

c1ccc2c(CCNc3ccc(Nc4ccncc4)cc3)c[nH]c2c1 [serdemetan]
Conditions	SARS-CoV-2 infection rate [%]	cell count [%]	cell viability [%]	morphology score	phospholipidosis EC50 [µM]
A549-ACE2 [18], 24 h	–	–	–	–	3.5
A549-ACE2 [18], 48 h	–	–	–	–	3.63
Caco-2 [1], 1 nM	–	–	94.1	–	–
Caco-2 [1], 10 nM	–	–	94.2	–	–
Caco-2 [1], 100 nM	–	–	99	–	–
Caco-2 [1], 1000 nM	–	–	92.1	–	–
Caco-2 [1], 10000 nM	–	–	82.8	–	–
Calu-3 [2], 1 nM	–	–	98.5	–	–
Calu-3 [2], 10 nM	–	–	92.3	–	–
Calu-3 [2], 100 nM	–	–	105	–	–
Calu-3 [2], 1000 nM	–	–	92.8	–	–
Calu-3 [2], 10000 nM	–	–	51.7	–	–
HepG2 [3], 1 nM	–	–	94.8	–	–
HepG2 [3], 10 nM	–	–	99.5	–	–
HepG2 [3], 100 nM	–	–	98.6	–	–
HepG2 [3], 1000 nM	–	–	85.7	–	–
HepG2 [3], 10000 nM	–	–	45.6	–	–
U2OS [4], 1 nM	–	–	98.7	–	–
U2OS [4], 10 nM	–	–	97.5	–	–
U2OS [4], 100 nM	–	–	100	–	–
U2OS [4], 1000 nM	–	–	100	–	–
U2OS [4], 10000 nM	–	–	52.1	–	–
Vero E6 [5], 1 nM	–	–	93.1	–	–
Vero E6 [5], 10 nM	–	–	101	–	–
Vero E6 [5], 100 nM	–	–	97.4	–	–
Vero E6 [5], 1000 nM	–	–	93.5	–	–
Vero E6 [5], 10000 nM	–	–	87.9	–	–
[16], 0.3 µM	–	102	–	–	–
[16], 3 µM	–	106	–	–	–
[16], 10 µM	–	115	–	–	–
[16], 30 µM	–	82	–	–	–
[17], 0.3 µM	106	–	–	–	–
[17], 3 µM	72	–	–	–	–
[17], 10 µM	22	–	–	–	–
[17], 30 µM	43	–	–	–	–
[20], 0.3 µM	–	–	–	-0.18	–
[20], 3 µM	–	–	–	0.58	–
[20], 10 µM	–	–	–	0.82	–
[20], 30 µM	–	–	–	0.17	–

drug-induced phospholipidosis [%], A549-ACE2 [19]
Conditions	0.3 µM	0.833333 µM	3.33333 µM	6.66667 µM	10 µM	30 µM
24 h	0.45	0.3	12.7	59.1	43.6	17.2
48 h	-0.34	-2.16	8.14	56.1	35.4	–
72 h	-1.75	-1.63	6.6	–	–	–

Conditions	drug sensitivity score	relative viability EC50 [µM]
Caco-2 [6]	–	> 10
Caco-2 [11]	0.8	–
Calu-3 [12]	3.7	–
HepG2 [8]	–	1.51
HepG2 [13]	5.1	–
U2OS [14]	2.5	–
Vero E6 [10]	–	> 10
Vero E6 [15]	0.1	–
